Here are results for 2 compounds from PMC165446 (BMC Microbiology, 2003).

This assay addresses T1, methionine adenosyltransferase (MAT; S-adenosylmethionine synthetase) (Mycolicibacterium smegmatis, UniProt A0QWT3).
T1 sequence (A0QWT3 1-399): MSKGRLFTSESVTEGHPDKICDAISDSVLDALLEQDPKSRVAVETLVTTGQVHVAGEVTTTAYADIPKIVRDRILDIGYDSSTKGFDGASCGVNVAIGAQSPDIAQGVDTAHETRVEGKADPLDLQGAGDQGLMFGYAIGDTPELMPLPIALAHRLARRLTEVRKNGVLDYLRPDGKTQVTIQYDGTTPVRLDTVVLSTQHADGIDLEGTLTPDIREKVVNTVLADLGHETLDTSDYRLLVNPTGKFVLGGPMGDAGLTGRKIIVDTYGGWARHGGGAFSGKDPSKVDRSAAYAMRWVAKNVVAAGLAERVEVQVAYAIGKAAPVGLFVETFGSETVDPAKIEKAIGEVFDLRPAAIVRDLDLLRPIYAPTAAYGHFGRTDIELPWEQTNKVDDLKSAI
The assay is described as follows: HPLC assay of SAM formation, Dixon plots with varied ATP. The format is biochemical.

Broadly, the Ki is a dissociation constant, usually derived from enzyme kinetics or from competition with a known ligand. The compound `Nc1nc2nn[nH]c2c(=O)[nH]1` [8-azaguanine] gave a Ki of 4.7 ± 0.77 mM. To `Cn1cnc([N+](=O)[O-])c1Sc1ncnc2nc[nH]c12` [azathioprine] belongs 3.74 ± 1 mM.
